Experimental data reported in US8232273B2, “Heterocyclic compounds and methods of use” (Genentech, Inc., priority 2008, dated 2012).

Target: Bcl-xL (GST-Bcl-xL) (Homo sapiens, UniProt Q07817)
Assay: TR-FRET binding assay, competition with F-Bak for the Bcl-xL binding site
Conditions: values listed in the order of Table 1, read-out: TR-FRET assay results (Ki), Bcl-xL
Experimental: The measurement of competition of compounds of the invention with F-Bak for a Bcl-2 family protein (Bcl-xL) binding site using a Time Resolved Fluorescence Resonance Energy Transfer (TR-FRET) binding assay:
Test compounds were serially diluted in DMSO starting at 50 μM (2× starting concentration; 10% DMSO) and 10 μt transferred into a 384-well plate.
The samples are then mixed on a shaker for 1 minute then incubated for an additional 2 hours at room temperature. For each assay plate, a probe/antibody and protein/antibody/probe mixture were included as a negative and a positive control, respectively. Fluorescence was measured on the Envision (Perkin Elmer) using a 340/35 nm excitation filter and 520/525 (F-Bak) and 495/510 nm (Tb-labeled anti-his antibody) emission filters. Dissociation constants (Ki) were determined using Wang's equation (see, Wang, Z. X. An exact mathematical expression for describing competitive binding of two different ligands to a protein molecule. FEBS Lett. 1995 360:111-114). The TR-FRET assay can be performed in the presence of varying concentrations of human serum (HS) or fetal bovine serum (FBS).

Bcl-xL (GST-Bcl-xL), sequence (Q07817 whole entry, species assumed): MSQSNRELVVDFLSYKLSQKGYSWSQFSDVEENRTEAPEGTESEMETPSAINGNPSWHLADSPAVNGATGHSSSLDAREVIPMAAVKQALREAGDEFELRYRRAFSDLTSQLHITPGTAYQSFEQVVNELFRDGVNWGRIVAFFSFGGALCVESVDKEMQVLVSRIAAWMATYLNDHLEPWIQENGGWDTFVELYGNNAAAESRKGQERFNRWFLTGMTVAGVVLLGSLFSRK

Structure (SMILES)	Ki
N#Cc1c(-c2cccc(OCc3sc(N4CCc5cccc(C(=O)Nc6nc7ccccc7s6)c5C4)nc3C(=O)O)c2)n[nH]c1N [Example 46, 5-[3-(5-Amino-4-cyano-1H-pyrazol-3-yl)-phenoxymethyl]-2-[8-(benzothiazol-2-ylcarbamoyl)-3,4-dihydro-1H-isoquinolin-2-yl]-thiazole-4-carboxylic acid]	1 nM
O=C(Nc1nc2ccccc2s1)c1cccc2c1CN(c1nc(C(=O)O)c(CCCN3CCOCC3)s1)CC2 [Example 19, 2-(8-(benzo[d]thiazol-2-ylcarbamoyl)-3,4-dihydroisoquinolin-2(1H)-yl)-5-(3-morpholinopropyl)thiazole-4-carboxylic acid]	9 nM
CC(C)Nc1ncnc2c(-c3ccc(OCCCc4sc(N5CCc6cccc(C(=O)Nc7nc8ccccc8s7)c6C5)nc4C(=O)O)cc3)csc12 [Example 69, 2-[8-(Benzothiazol-2-ylcarbamoyl)-3,4-dihydro-1H-isoquinolin-2-yl]-5-{3-[4-(4-isopropylamino-thieno[3,2-d]pyrimidin-7-yl)-phenoxy]-propyl}-thiazole-4-carboxylic acid]	0.5 nM
CN(C)CC#Cc1ccc(OCCCc2sc(N3CCc4cccc(C(=O)Nc5nc6ccccc6s5)c4C3)nc2C(=O)NS(=O)(=O)C(F)F)c(F)c1 [Compound 147, 2-(8-(benzo[d]thiazol-2-ylcarbamoyl)-3,4-dihydroisoquinolin-2(1H)-yl)-N-(difluoromethylsulfonyl)-5-(3-(4-(3-(dimethylamino)prop-1-ynyl)-2-fluorophenoxy)propyl)thiazole-4-carboxamide]	> 660 nM
O=C(Nc1nc2ccccc2s1)c1cccc2c1CN(c1nc(C(=O)O)c(CCc3ccc4cc(OCCCN5CCOCC5)ccc4c3)s1)CC2 [Example 111, 2-(8-(benzo[d]thiazol-2-ylcarbamoyl)-3,4-dihydroisoquinolin-2(1H)-yl)-5-(2-(6-(3-morpholinopropoxy)naphthalen-2-yl)ethyl)thiazole-4-carboxylic acid]	0.02 nM
CC(=O)N1CCN(c2ccc(OCCCc3sc(N4CCc5cccc(C(=O)Nc6nc7ccccc7s6)c5C4)nc3C(=O)O)cc2)CC1 [Example 61, 5-{3-[4-(4-Acetyl-piperazin-1-yl)-phenoxy]-propyl}-2-[8-(benzothiazol-2-ylcarbamoyl)-3,4-dihydro-1H-isoquinolin-2-yl]-thiazole-4-carboxylic acid]	0.3 nM
O=C(Nc1nc2ccccc2s1)c1cccc2c1CN(c1nc(C(=O)O)c(CCCOc3ccc(-n4ccnc4)cc3)s1)CC2 [Example 66, 5-(3-(4-(1H-imidazol-1-yl)phenoxy)propyl)-2-(8-(benzo[d]thiazol-2-ylcarbamoyl)-3,4-dihydroisoquinolin-2(1H)-yl)thiazole-4-carboxylic acid]	0.1 nM
O=C(Nc1nc2ccccc2s1)c1cccc2c1CN(c1nc(C(=O)O)c(C#Cc3ccc4cc(OCCCN5CCOCC5)ccc4c3)s1)CC2 [Example 110, 2-(8-(benzo[d]thiazol-2-ylcarbamoyl)-3,4-dihydroisoquinolin-2(1H)-yl)-5-((6-(3-morpholinopropoxy)naphthalen-2-yl)ethynyl)thiazole-4-carboxylic acid]	0.07 nM
O=C(Nc1nc2ccccc2s1)c1cccc2c1CN(c1ccc(CCCCOc3ccccc3)c(C(=O)O)n1)CC2 [Compound 131, 6-(8-(benzo[d]thiazol-2-ylcarbamoyl)-3,4-dihydroisoquinolin-2(1H)-yl)-3-(4-phenoxybutyl)picolinic acid]	18.9 nM
N#Cc1cscc1-c1ccc(O)c(Cc2sc(N3CCc4cccc(C(=O)Nc5nc6ccccc6s5)c4C3)nc2C(=O)O)c1 [Example 60, 2-[8-(Benzothiazol-2-ylcarbamoyl)-3,4-dihydro-1H-isoquinolin-2-yl]-5-[5-(4-cyano-thiophen-3-yl)-2-hydroxy-benzyl]-thiazole-4-carboxylic acid]	176 nM
N#Cc1c(-c2ccc(OCCCc3sc(N4CCc5cccc(C(=O)Nc6nc7ccccc7s6)c5C4)nc3C(=O)O)cc2)csc1N [Example 47, 5-{3-[4-(5-Amino-4-cyano-thiophen-3-yl)-phenoxy]-propyl}-2-[8-(benzothiazol-2-ylcarbamoyl)-3,4-dihydro-1H-isoquinolin-2-yl]-thiazole-4-carboxylic acid]	0.1 nM
CN(C)CC#Cc1ccc(OCCCc2sc(N3CCc4cccc(C(=O)Nc5nc6ccccc6s5)c4C3)nc2C(=O)NS(C)(=O)=O)c(F)c1 [Compound 142, 2-(8-(benzo[d]thiazol-2-ylcarbamoyl)-3,4-dihydroisoquinolin-2(1H)-yl)-5-(3-(4-(3-(dimethylamino)prop-1-ynyl)-2-fluorophenoxy)propyl)-N-(methylsulfonyl) thiazole-4-carboxamide]	0.088 nM
N#Cc1c(-c2cccc(OCCCc3sc(N4CCc5cccc(C(=O)Nc6nc7ccccc7s6)c5C4)nc3C(=O)O)c2)n[nH]c1N [Example 39, 5-(3-(3-(5-amino-4-cyano-1H-pyrazol-3-yl)phenoxy)propyl)-2-(8-(benzo[d]thiazol-2-ylcarbamoyl)-3,4-dihydroisoquinolin-2(1H)-yl)thiazole-4-carboxylic acid]	0.2 nM
N#Cc1cccnc1-c1ccc(OCCCc2sc(N3CCc4cccc(C(=O)Nc5nc6ccccc6s5)c4C3)nc2C(=O)O)cc1 [Example 56, 2-[8-(Benzothiazol-2-ylcarbamoyl)-3,4-dihydro-1H-isoquinolin-2-yl]-5-{3-[4-(3-cyano-pyridin-2-yl)-phenoxy]-propyl}-thiazole-4-carboxylic acid]	0.05 nM
CN1CCN(Cc2ccc(OCCCc3sc(N4CCc5cccc(C(=O)Nc6nc7ccccc7s6)c5C4)nc3C(=O)O)cc2)CC1 [Example 89, 2-[8-(Benzothiazol-2-ylcarbamoyl)-3,4-dihydro-1H-isoquinolin-2-yl]-5-{3-[4-(4-methyl-piperazin-1-ylmethyl)-phenoxy]-propyl}-thiazole-4-carboxylic acid]	0.1 nM
O=C(Nc1nc2ccccc2s1)c1cccc2c1CN(c1nc(C(=O)O)c(CCCOc3ccc(-n4cncn4)cc3)s1)CC2 [Example 67, 5-(3-(4-(1H-1,2,4-triazol-1-yl)phenoxy)propyl)-2-(8-(benzo[d]thiazol-2-ylcarbamoyl)-3,4-dihydroisoquinolin-2(1H)-yl)thiazole-4-carboxylic acid]	0.05 nM
CC(C)Nc1ncnc2c1cnn2-c1ccc(OCCCc2sc(N3CCc4cccc(C(=O)Nc5nc6ccccc6s5)c4C3)nc2C(=O)O)cc1 [Example 44, 2-(8-(benzo[d]thiazol-2-ylcarbamoyl)-3,4-dihydroisoquinolin-2(1H)-yl)-5-(3-(4-(4-(isopropylamino)-1H-pyrazolo[3,4-d]pyrimidin-1-yl)phenoxy)propyl)thiazole-4-carboxylic acid]	0.07 nM
O=C(Nc1nc2ccccc2s1)c1cccc2c1CN(c1nc(C(=O)O)c(CCCCOc3ccc(-n4ncc5cncnc54)cc3)s1)CC2 [Example 43, 5-(4-(4-(1H-pyrazolo[3,4-d]pyrimidin-1-yl)phenoxy)butyl)-2-(8-(benzo[d]thiazol-2-ylcarbamoyl)-3,4-dihydroisoquinolin-2(1H)-yl)thiazole-4-carboxylic acid]	5 nM
N#Cc1c(-c2cccc(OCc3ccc(-c4sc(N5CCc6cccc(C(=O)Nc7nc8ccccc8s7)c6C5)nc4C(=O)O)cc3)c2)n[nH]c1N [Example 37, 5-(4-((3-(5-amino-4-cyano-1H-pyrazol-3-yl)phenoxy)methyl)phenyl)-2-(8-(benzo[d]thiazol-2-ylcarbamoyl)-3,4-dihydroisoquinolin-2(1H)-yl)thiazole-4-carboxylic acid]	4 nM
O=C(Nc1nc2ccccc2s1)c1cccc2c1CN(c1nc(C(=O)O)c(CCOCc3ccccc3)s1)CC2 [Compound 134, 2-(8-(benzo[d]thiazol-2-ylcarbamoyl)-3,4-dihydroisoquinolin-2(1H)-yl)-5-(2-(benzyloxy)ethyl)thiazole-4-carboxylic acid]	0.6 nM
O=C(Nc1nc2ccccc2s1)c1cccc2c1CN(c1nc(C(=O)O)c(CCCOc3ccc(-c4cn[nH]c4)cc3)s1)CC2 [Example 73, 5-(3-(4-(1H-pyrazol-4-yl)phenoxy)propyl)-2-(8-(benzo[d]thiazol-2-ylcarbamoyl)-3,4-dihydroisoquinolin-2(1H)-yl)thiazole-4-carboxylic acid]	0.08 nM
Cn1cnnc1-c1ccc(OCCCc2sc(N3CCc4cccc(C(=O)Nc5nc6ccccc6s5)c4C3)nc2C(=O)O)cc1 [Example 68, 2-(8-(benzo[d]thiazol-2-ylcarbamoyl)-3,4-dihydroisoquinolin-2(1H)-yl)-5-(3-(4-(4-methyl-4H-1,2,4-triazol-3-yl)phenoxy)propyl)thiazole-4-carboxylic acid]	0.2 nM
CN1CCN(CCCN(CCCc2sc(N3CCc4cccc(C(=O)Nc5nc6ccccc6s5)c4C3)nc2C(=O)O)c2ncnc3c2cnn3-c2ccc(O)cc2)CC1 [Example 91, 2-(8-(benzo[d]thiazol-2-ylcarbamoyl)-3,4-dihydroisoquinolin-2(1H)-yl)-5-(3-((1-(4-hydroxyphenyl)-1H-pyrazolo[3,4-d]pyrimidin-4-yl)(3-(4-methylpiperazin-1-yl)propyl)amino)propyl)thiazole-4-carboxylic acid]	0.7 nM
O=C(Nc1nc2ccccc2s1)c1cccc2c1CN(c1ccc(CCCO)c(C(=O)O)n1)CC2 [Example 99, 6-[8-(Benzothiazol-2-ylcarbamoyl)-3,4-dihydro-1H-isoquinolin-2-yl]-3-(3-hydroxy-propyl)-pyridine-2-carboxylic acid]	125 nM
